Measured values from the supplement of paper PMC10307832.

What was measured:
Experiment in all cases: relative viability (nuclei count vs DMSO), 5 days (fraction); higher = more cells survive
[1] = compound: C1=CC2=C(C=C(C(=C2N=C1)O)N=NC3=CC4=C(C=C3)C=C(C=C4)S(=O)(=O)O)S(=O)(=O)O + Cc1nc(NC(=O)N2CCC[C@H]2C(N)=O)sc1-c1ccnc(C(C)(C)C(F)(F)F)c1 [Alpelisib] (partner 2 µM)
Procedure, shortened: (§1)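 One day after seeding in 1536-well plates, lung cancer cell lines were dosed by pin tool. Dosing was either single-drug or a fixed anchor-drug dose plus five library-drug doses (not always all listed) in √10 steps. After 5 days, nuclei were stained in one fix-and-stain step and counted on 4× images, and relative viability is the nuclei count of treated wells over that of vehicle wells, given as the median of duplicate plates.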

AT-7519 + Palbociclib = compound: O=C(NC1CCNCC1)c1n[nH]cc1NC(=O)c1c(Cl)cccc1Cl [AT-7519] + CC(=O)c1c(C)c2cnc(Nc3ccc(N4CCNCC4)cn3)nc2n(C2CCCC2)c1=O [Palbociclib] (partner 0.5 µM)
Procedure, shortened: as §1

AT-7519 + Bortezomib = compound: O=C(NC1CCNCC1)c1n[nH]cc1NC(=O)c1c(Cl)cccc1Cl [AT-7519] + CC(C)C[C@H](NC(=O)[C@H](Cc1ccccc1)NC(=O)c1cnccn1)B(O)O [Bortezomib] (partner 0.002 µM)
Procedure, shortened: as §1

AT-7519 + AZD7762 = compound: O=C(NC1CCNCC1)c1n[nH]cc1NC(=O)c1c(Cl)cccc1Cl [AT-7519] + NC(=O)Nc1cc(-c2cccc(F)c2)sc1C(=O)N[C@H]1CCCNC1 [AZD7762] (partner 0.2 µM)
Procedure, shortened: as §1

Row | Cell Line | relative viability ([1]; first compound 0.08 µM) | relative viability ([1]; first compound 0.253 µM) | relative viability ([1]; first compound 0.8 µM) | relative viability ([1]; first compound 2.53 µM) | relative viability ([1]; first compound 8 µM) | relative viability (AT-7519 + Palbociclib; first compound 0.01 µM) | relative viability (AT-7519 + Palbociclib; first compound 0.03162 µM) | relative viability (AT-7519 + Palbociclib; first compound 0.3162 µM) | relative viability (AT-7519 + Palbociclib; first compound 1 µM) | relative viability (AT-7519 + Bortezomib; first compound 0.01 µM) | relative viability (AT-7519 + Bortezomib; first compound 0.03162 µM) | relative viability (AT-7519 + Bortezomib; first compound 0.3162 µM) | relative viability (AT-7519 + Bortezomib; first compound 1 µM) | relative viability (AT-7519 + AZD7762; first compound 0.01 µM) | relative viability (AT-7519 + AZD7762; first compound 0.03162 µM) | relative viability (AT-7519 + AZD7762; first compound 0.3162 µM) | relative viability (AT-7519 + AZD7762; first compound 1 µM)
1 | ABC-1 | 1.14 | 0.967 | 1.03 | 0.869 | 1.22 | 0.778 | 0.702 | 0.549 | 0.442 | 0.291 | 0.337 | 0.259 | 0.231 | 0.922 | 0.782 | 0.952 | 0.907
2 | NCI-H2170 | 0.872 | 0.802 | 0.78 | 0.82 | 0.76 | 0.418 | 0.427 | 0.345 | 0.423 | – | – | – | – | 0.906 | 0.892 | 0.954 | 0.75
3 | NCI-H1299 | 0.985 | 1.04 | 1.01 | 0.997 | 1.05 | – | – | – | – | 1.05 | 0.996 | 1.05 | 1.28 | – | – | – | –
4 | EBC-1 | 0.822 | 0.854 | 0.743 | 0.813 | 1.03 | – | – | – | – | 0.615 | 0.551 | 0.443 | 0.23 | – | – | – | –
5 | NCI-H2347 | 1.03 | 0.995 | 1.07 | 1.07 | 1.06 | 0.397 | 0.44 | 0.469 | 0.374 | 0.916 | 0.873 | 0.952 | 1.27 | 0.625 | 0.843 | 0.725 | 0.469
6 | NCI-H1993 | 0.71 | 0.682 | 0.747 | 0.705 | 0.701 | 0.759 | 0.638 | 0.612 | 0.229 | 0.987 | 0.979 | 1.07 | 0.683 | 0.671 | 0.637 | 0.736 | 0.38
7 | NCI-H322M | 0.917 | 0.82 | 0.687 | 0.846 | 0.814 | 0.501 | 0.486 | 0.419 | 0.473 | 1.2 | 1.26 | 1.27 | 1.52 | 0.534 | 0.533 | 0.578 | 0.639
8 | NCI-H1648 | – | – | – | – | – | 0.32 | – | 0.242 | 0.245 | – | – | – | – | 0.63 | – | 0.578 | 1.12
9 | ChaGo-K-1 | – | – | – | – | – | 0.952 | 0.938 | 0.922 | 0.869 | 1.03 | 1.37 | 0.763 | 0.96 | 0.895 | 0.838 | 0.843 | 0.844
10 | COR-L23 | 0.818 | 0.691 | 0.728 | 0.704 | 0.593 | 0.306 | 0.28 | 0.265 | 0.157 | 0.994 | 0.863 | 0.82 | 0.2 | – | – | – | –
11 | COR-L 105 | 1.05 | 1.03 | 1.26 | 0.966 | 1.08 | 0.382 | 0.416 | 0.371 | 0.354 | 0.75 | 0.898 | 0.65 | 0.344 | – | – | – | –
12 | LK-2 | 1.12 | 1.1 | 1.12 | 1.08 | 0.935 | 0.783 | 0.968 | 0.675 | 0.547 | – | – | – | – | 0.456 | 0.329 | 0.347 | 0.19
